Toxic doses and inconclusive results are not listed. Cut-off read from the data, not from the text of the source: active = T/C of 150% or more; inactive = T/C below 125%.
System: L1210 leukemia ip in BDF1 mice, survival T/C
Assay: NCI In Vivo Anticancer Drug Screen. Data for tumor model L1210 Leukemia (intraperitoneal) in B6D2F1 (BDF1) mice
Details: endpoint: mean survival time, higher = longer survival
Outline: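 Transplantable tumor model; survival measured in treated vs vehicle control mice. Value = treated/control.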

[1] = dose: 100.0 mg/kg/injection, schedule: Q01DX001 (ip), vehicle: other
[2] = dose: 200.0 mg/kg/injection, schedule: Q01DX001 (ip), vehicle: other
[3] = dose: 400.0 mg/kg/injection, schedule: Q01DX001 (ip), vehicle: other
[4] = dose: 100.0 mg/kg/injection, schedule: Q01DX001 (ip), vehicle: saline
[5] = dose: 100.0 mg/kg/injection, schedule: Q04DX002 (ip), vehicle: Klucel (hydroxypropylcellulose) (HPC)
[6] = dose: 200.0 mg/kg/injection, schedule: Q04DX002 (ip), vehicle: Klucel (hydroxypropylcellulose) (HPC)
[7] = dose: 400.0 mg/kg/injection, schedule: Q04DX002 (ip), vehicle: Klucel (hydroxypropylcellulose) (HPC)
[8] = dose: 15.0 mg/kg/injection, schedule: Q01DX001 (ip), vehicle: carboxymethylcellulose (CMC)
[9] = dose: 50.0 mg/kg/injection, schedule: Q01DX001 (ip), vehicle: carboxymethylcellulose (CMC)
[10] = dose: 100.0 mg/kg/injection, schedule: Q01DX001 (ip), vehicle: carboxymethylcellulose (CMC)
[11] = dose: 100.0 mg/kg/injection, schedule: Q04DX003 (ip), vehicle: Klucel (hydroxypropylcellulose) (HPC)

Measured: T/C

N#CCCCCCCCCC(=O)OCCC#N
inactive: [1] 95 % of control | [2] 98 % of control | [3] 97 % of control

Cc1c2oc3c(C)ccc(C(=O)NCCC(C)C)c3nc-2c(C(=O)NCCC(C)C)c(N)c1=O
inactive: dose: 10.0 mg/kg/injection, schedule: Q01DX001 (ip), vehicle: carboxymethylcellulose (CMC) 93 % of control

COC(=O)C1=CO[C@H](C)[C@@H]2CN3CCc4c([nH]c5ccccc45)[C@@H]3C[C@H]12
inactive: dose: 17.5 mg/kg/injection, schedule: Q01DX Z (ip), vehicle: carboxymethylcellulose (CMC) 98 % of control

NC(N)=NN=C1CCC(C2CCCCC2)CC1 (configuration not stated)
inactive: dose: 15.0 mg/kg/injection, schedule: Q01DX Z (ip), vehicle: methylcellulose (MC) 95 % of control | dose: 30.0 mg/kg/injection, schedule: Q01DX Z (ip), vehicle: methylcellulose (MC) 97 % of control | dose: 30.0 mg/kg/injection, schedule: Q01DX Z (oral), vehicle: methylcellulose (MC) 92 % of control | dose: 60.0 mg/kg/injection, schedule: Q01DX Z (ip), vehicle: methylcellulose (MC) 92 % of control | dose: 60.0 mg/kg/injection, schedule: Q01DX Z (oral), vehicle: methylcellulose (MC) 92 % of control | dose: 120.0 mg/kg/injection, schedule: Q01DX Z (ip), vehicle: methylcellulose (MC) 92 % of control | dose: 120.0 mg/kg/injection, schedule: Q01DX Z (oral), vehicle: methylcellulose (MC) 93 % of control

CC(C)CNCc1cc(Nc2ccnc3cc(Cl)ccc23)ccc1O
inactive: dose: 100.0 mg/kg/injection, schedule: Q04DX002 (ip), vehicle: saline 94 % of control | dose: 200.0 mg/kg/injection, schedule: Q04DX002 (ip), vehicle: saline 98 % of control

CCCCN(CCCC)CC(O)c1ccnc2cc3c(cc12)OCO3 (configuration not stated)
inactive: dose: 25.0 mg/kg/injection, schedule: Q01DX009 (ip), vehicle: other 102 % of control | dose: 50.0 mg/kg/injection, schedule: Q01DX009 (ip), vehicle: other 110 % of control | [4] 97 % of control | dose: 100.0 mg/kg/injection, schedule: Q01DX009 (ip), vehicle: other 111 % of control

Clc1ccc(/C=N/N=C/c2ccc(Cl)cc2Cl)c(Cl)c1
inactive: [5] 98 % of control | [6] 98 % of control | [7] 102 % of control

O=C(S)c1ccccc1.[Pb]
inactive: dose: 100.0 mg/kg/injection, schedule: Q04DX002 (ip), vehicle: saline with Tween-80 87 % of control | dose: 200.0 mg/kg/injection, schedule: Q04DX002 (ip), vehicle: saline with Tween-80 108 % of control

CC(=O)Nc1c(Cl)cc(-c2ccc(F)cc2)cc1Cl
inactive: [8] 96 % of control | dose: 30.0 mg/kg/injection, schedule: Q01DX001 (ip), vehicle: carboxymethylcellulose (CMC) 94 % of control | dose: 60.0 mg/kg/injection, schedule: Q01DX001 (ip), vehicle: carboxymethylcellulose (CMC) 98 % of control

Cc1cccc(C)c1OC(=O)Nc1ccc(Cl)cc1
inactive: [5] 96 % of control | [6] 110 % of control | [7] 96 % of control

COc1ccccc1-n1c(O)c(N=Nc2ccc(Br)cc2)c(=O)n(-c2ccccc2)c1=S
inactive: dose: 100.0 mg/kg/injection, schedule: Q01DX001 (ip), vehicle: Klucel (hydroxypropylcellulose) (HPC) 102 % of control | dose: 200.0 mg/kg/injection, schedule: Q01DX001 (ip), vehicle: Klucel (hydroxypropylcellulose) (HPC) 121 % of control | dose: 400.0 mg/kg/injection, schedule: Q01DX001 (ip), vehicle: Klucel (hydroxypropylcellulose) (HPC) 102 % of control

CCOC(=O)NNC(=O)O
inactive: [9] 108 % of control | [10] 90 % of control

O=c1/c(=C\c2ccccc2Cl)sc2n1CCN=2
inactive: [4] 100 % of control | dose: 200.0 mg/kg/injection, schedule: Q01DX001 (ip), vehicle: saline 105 % of control | dose: 400.0 mg/kg/injection, schedule: Q01DX001 (ip), vehicle: saline 105 % of control

CC(CN1CCN(CCOCCO)CC1)CN1c2ccccc2Sc2ccc(Cl)cc21 (configuration not stated)
inactive: dose: 0.09 mg/kg/injection, schedule: Q01DX009 (ip), vehicle: saline 114 % of control | dose: 0.39 mg/kg/injection, schedule: Q01DX009 (ip), vehicle: saline 94 % of control | dose: 0.78 mg/kg/injection, schedule: Q01DX009 (ip), vehicle: saline 96 % of control | dose: 0.78 mg/kg/injection, schedule: Q04DX003 (ip), vehicle: saline 108 % of control | dose: 1.56 mg/kg/injection, schedule: Q01DX009 (ip), vehicle: saline 114 % of control | dose: 1.56 mg/kg/injection, schedule: Q04DX003 (ip), vehicle: saline 110 % of control | dose: 3.12 mg/kg/injection, schedule: Q04DX003 (ip), vehicle: saline 106 % of control | dose: 6.25 mg/kg/injection, schedule: Q04DX003 (ip), vehicle: saline 105 % of control | dose: 12.5 mg/kg/injection, schedule: Q04DX003 (ip), vehicle: saline 111 % of control

CC1CCc2cc3c4ccccc4n(C)c3cc2C1 (configuration not stated)
inactive: dose: 75.0 mg/kg/injection, schedule: Q01DX001 (ip), vehicle: carboxymethylcellulose (CMC) 107 % of control | dose: 150.0 mg/kg/injection, schedule: Q01DX001 (ip), vehicle: carboxymethylcellulose (CMC) 109 % of control | dose: 300.0 mg/kg/injection, schedule: Q01DX001 (ip), vehicle: carboxymethylcellulose (CMC) 109 % of control

CC(=O)[O][Hg][CH]1Cc2ccccc2O1 (configuration not stated)
inactive: [8] 94 % of control

COc1ccc(CN2CCCN(Cc3ccc(OC)cc3OC)C2c2ccccc2OC)c(OC)c1
inactive: [9] 101 % of control | [10] 93 % of control | dose: 200.0 mg/kg/injection, schedule: Q01DX001 (ip), vehicle: carboxymethylcellulose (CMC) 93 % of control | dose: 400.0 mg/kg/injection, schedule: Q01DX001 (ip), vehicle: carboxymethylcellulose (CMC) 101 % of control

O=C(N/N=C/c1ccccc1)c1ccccc1
inactive: dose: 100.0 mg/kg/injection, schedule: Q01DX009 (ip), vehicle: saline 102 % of control | dose: 100.0 mg/kg/injection, schedule: Q04DX003 (ip), vehicle: alcohol 98 % of control | dose: 200.0 mg/kg/injection, schedule: Q01DX009 (ip), vehicle: saline 104 % of control | dose: 200.0 mg/kg/injection, schedule: Q04DX003 (ip), vehicle: alcohol 95 % of control | dose: 400.0 mg/kg/injection, schedule: Q01DX009 (ip), vehicle: saline 96 % of control | dose: 400.0 mg/kg/injection, schedule: Q04DX003 (ip), vehicle: alcohol 90 % of control

CCOC(=O)CCC(NC(=O)c1ccc(N(C)Cc2cnc3nc(NC(C)=O)cc(NC(C)=O)c3n2)cc1)C(=O)OCC (configuration not stated)
inactive: [1] 102 % of control | [2] 93 % of control | [3] 95 % of control

COC1c2c(nc3ccccc3c2C(=O)O)-c2ccccc2C1(C)C (configuration not stated)
inactive: [11] 104 % of control | dose: 200.0 mg/kg/injection, schedule: Q04DX003 (ip), vehicle: Klucel (hydroxypropylcellulose) (HPC) 104 % of control | dose: 400.0 mg/kg/injection, schedule: Q04DX003 (ip), vehicle: Klucel (hydroxypropylcellulose) (HPC) 106 % of control

c1ccc(C2=C(c3ccccc3)NC(c3ccccc3)N2)cc1
inactive: dose: 12.5 mg/kg/injection, schedule: Q04DX003 (ip), vehicle: Klucel (hydroxypropylcellulose) (HPC) 102 % of control | dose: 25.0 mg/kg/injection, schedule: Q04DX003 (ip), vehicle: Klucel (hydroxypropylcellulose) (HPC) 100 % of control | dose: 50.0 mg/kg/injection, schedule: Q04DX003 (ip), vehicle: Klucel (hydroxypropylcellulose) (HPC) 98 % of control | [11] 96 % of control

CCOCc1nc(N)nc(N)c1-c1cccc(Cl)c1
inactive: dose: 100.0 mg/kg/injection, schedule: Q01DX009 (ip), vehicle: saline with Tween-80 104 % of control | dose: 200.0 mg/kg/injection, schedule: Q01DX009 (ip), vehicle: saline with Tween-80 117 % of control

From PubChem BioAssay AID248 (DTP/NCI, 2004)
